Test results taken from publication PMC3425544, “The S100A10 Subunit of the Annexin A2 Heterotetramer Facilitates L2-Mediated Human Papillomavirus Infection” (PLoS ONE, 2012).

Tests used:
[1] = system: Bovine Serum Albumin (BSA); experiment: EPR binding of L2 peptide to BSA (specificity control); conditions: 20 µM peptide, 100 µM BSA
From the text: The L2_108–126 peptides used in our EPR studies were synthesized with a cysteine at the N-terminus, and followed by a spacer of 3 physiological amino acids (C-IVS) preceding the canonical L2_108–126 and L2 scrambled sequences (C-IVS-LVEETSFIDAGAPTSVPSI and C-IVS-IESPVSDTALGTPEIFVSA respectively). Peptides were combined with 8× molar excess paramagnetic label (1-oxyl-2, 2, 5, 5-tetramethyl-Δ3-pyrroline-3-methyl) (R1) methanethiosulfonate (MTSL), (Toronto Research Chemicals, Canada) and left to react overnight at 4°C. Free label was removed by gel filtration (PD10 GE, United Kingdom). All peptides were solubilized into HEPES buffer. […] Binding interactions were examined by combining paramagnetically-labeled L2 peptide with A2t, BSA, ANXA2, or S100A10 (20 µM, 100 µM, 100 µM, 100 µM, and 100 µM respectively) in 10 µL volumes of the HEPES buffer, confined by glass capillaries, and measured at room temperature over a period of 24 hours using a Bruker EMX X-band EPR spectrometer. […] To quantify the amount of bound peptide spectra of all tested proteins in combination with the L2_108–126 or ScrL2 peptides were compared to the spectra of L2_108–126 or ScrL2 peptides alone in solution using a spectra analyzing software (EPR 130, University of California, Los Angeles). […]

[2] = system: surface of HeLa, SiHa and CaSki cells; conditions: ref [28], cited from earlier work
HepG2 cell line = conditions: ref [28]; cited from earlier work
From the text: Nonetheless, the link between HSV and H ...

annexin A2 = experiment: EPR binding of L2 peptide to annexin A2
Description: Recombinant annexin A2 was expressed in BL21(DE3) Escherichia coli cells and purified using reversible Ca^2+-dependent binding to negatively charged phospholipid vesicles followed by size exclusion chromatography. A pET23A vector containing the S100A10 sequence (a gift from Volker Gerke) was expressed in BL21(DE3) cells as previously described. Both proteins were stored at 4°C in 20 mM HEPES buffer at pH 7.4, containing 100 mM NaCl with the addition of 1 mM dithiothreitol. Concentrations of all proteins and peptides, including the A2t complex, were determined using bicinchoninic acid assays (Pierce Thermo Scientific, Rockford, IL) compared to measured absorbance of albumin standards at 562 nm. Purified annexin A2 and S100A10 were combined at a molar ratio of 1∶1 and concentrated to over 8 µg/µl. The mixture was incubated overnight at 4°C, and then loaded onto a superdex 200 10/300 GL (GE Healthcare USA) column equilibrated in the previously mentioned HEPES buffer. The eluted A2t peak was collected and subjected to peptide binding assays.
The L2_108–126 peptides used in our EPR studies were synthesized with a cysteine at the N-terminus, and followed by a spacer of 3 physiological amino acids (C-IVS) preceding the canonical L2_108–126 and L2 scrambled sequences (C-IVS-[…] and C-IVS-[…] respectively). Peptides were combined with 8× molar excess paramagnetic label (1-oxyl-2, 2, 5, 5-tetramethyl-Δ3-pyrroline-3-methyl) (R1) methanethiosulfonate (MTSL), (Toronto Research Chemicals, Canada) and left to react overnight at 4°C. Free label was removed by gel filtration (PD10 GE, United Kingdom). All peptides were solubilized into HEPES buffer. For competition assays, the scrambled peptide was non-paramagnetic labeled with an N-acetylated MTSL paramagnetic-label analog (1-acetyl-2,2,5,5- tetramethyl-Δ3-pyrroline-3-methyl) (R1′) at an 8× molar excess to emulate the paramagnetic label on control peptides. Binding interactions were examined by combining paramagnetically-labeled L2 peptide with A2t, BSA, ANXA2, or S100A10 (20 µM, 100 µM, 100 µM, 100 µM, and 100 µM respectively) in 10 µL volumes of the HEPES buffer, confined by glass capillaries, and measured at room temperature over a period of 24 hours using a Bruker EMX X-band EPR spectrometer. For the cysteine blocked S100A10, S100A10 was treated with R1′ and excess label was removed via gel filtration (see above) before the addition of paramagnetic labeled peptides. […] To quantify the amount of bound peptide spectra of all tested proteins in combination with the L2_108–126 or ScrL2 peptides were compared to the spectra of L2_108–126 or ScrL2 peptides alone in solution using a spectra analyzing software (EPR 130, University of California, Los Angeles). […]

Substance: C-IVS-LVEETSFIDAGAPTSVPSI [L2_108–126, HPV16 L2 aa 108–126 peptide with N-terminal cysteine and IVS spacer]
- binding to BSA [1]: does not bind BSA in a significant manner
- binding to cell lines ([2]; SiHa, CaSki, [29] (b5), [23], [28]): can bind to the surface of several human cell lines
- binding to HeLa cells with substitutions at aa 108–111 ([2]; aa 108–111 substituted (LVEE to GGDD)): decrease the binding
- binding to A2t-deficient HepG2 cells vs cervical cancer cell lines (HepG2 cell line): bind significantly less
- relative % bound to annexin A2 (annexin A2; 20 µM peptide, 100 µM ANXA2, mean of three separate experiments): 23.6%
- interaction with annexin A2 subunit (annexin A2; discussion): minimal interaction
- relative % bound to annexin A2 in presence of ScrL2 (annexin A2; scrambled peptide 5∶1, mean of three separate experiments): 17.7%
